Patent US10143668B2, “Hydroxy-substituted amino and ammonium derivatives and their medical use” (GRI BIO, INC., priority 2011, dated 2018)
Several values for one entry are separate records, joined by “and”; a condition that tells them apart may be missing. Identical values can stand only once. Like-named read-outs stand apart in the source and are kept apart here. Marks after values point to notes of the source that are not given here.

Experiments:
DTH response in mice = assay type: in vivo; details: for Inhibition of mouse ear swelling: 24 h after challenge
Procedure: The anti-inflammatory and anti-allergic effects of compound 1a was assessed in a mouse model of skin delayed-type hypersensitivity (DTH) reactions and compared to a vehicle control and to the reference drug, dexamethasone. DTH reactions are antigen-specific cell-mediated immune responses, driven primarily by T helper type 1 (Th1) cells, similar to the tuberculin immunization response. The immune reaction induced by an ovalbumin challenge to animals previously sensitized with ovalbumin in Complete Freund's Adjuvant, is characterized by swelling (edema) at the site of challenge, e.g. the mouse ear. Dexamethasone, an anti-inflammatory steroid, reduces cell-mediated immune responses and was employed to validate the responsiveness of the assay to pharmacological treatment.
Female BALB/cJW mice were bred at the University of Lodz, Lodz, Poland and housed in groups of 8 in makrolon cages with a 12 h light-dark cycle. Mice were given free access to food (Agropol S. j., Motycz, Poland) and water.
Sensitization: The protein antigen, ovalbumin, was reconstituted in PBS at 4 mg/ml. An ovalbumin-CFA emulsion was prepared by mixing the protein solution with the CFA suspension at a ratio of 1:1, using two Luer-lock syringes. The emulsion was tested by putting a drop of emulsion onto PBS; if the emulsion remained as a tight droplet on the PBS, the emulsion was deemed ready. Mice were sensitized by subcutaneously injecting 25 μL of emulsion into each side of the tail (100 μg ovalbumin per mouse).
Challenge: On the sixth day after sensitization, DTH was elicited by challenging animals subcutaneously (gauge 30 needle, B. Braun Melsungen, Melsungen, Germany) in the left ears with 10 μL of a 1% suspension of heat-aggregated ovalbumin (HOVA) (100 μg ovalbumin per mouse). The right ears were administered subcutaneously with PBS and served to determine the individual differences in ear thicknesses. HOVA was prepared by heating a 5% solution of ovalbumin in saline for 1 h at 80° C. with occasional swirling. After cooling to room temperature and centrifugation (400 g, 10 min at 4° C.), the pellet was washed twice with saline, resuspended at 2% in PBS and aliquots stored at −30° C. Before injection, HOVA was diluted with an equal volume of PBS and sonicated. Ear thickness was measured with a precise spring-loaded caliper (Art. No. 7309, Mitutoyo, Kawasaki, Japan) before challenge, and 24 h after challenge.
Sensitization, challenge and ear thickness measurement were performed under anesthesia (ketamine 80 mg/kg plus xylazine 8 mg/kg, intraperitoneally).
The anti-inflammatory effects of compound 1a were compared to a vehicle control (0.5% methyl cellulose solution) and to the reference drug, dexamethasone. Test compound was given at 25 or 100 mg/kg orally by gavage (Art. No. 432093, Harvard Apparatus GmbH, March-Hugstetten, Germany) 16 h and 3 h before sensitization and then twice daily with the final dose given 3 h prior to ear challenge (a total of 14 administrations). Dexamethasone was given at 0.1 or 1 mg/kg orally by gavage 3 h before sensitization and once daily with the final dose given 3 h prior to antigen challenge (a total of 7 administrations). All administrations were given in a volume of 10 mL/kg.
To account for individual variability, the increase in right ear thickness, before and 24 h after administration of PBS, was subtracted from the HOVA-induced increase in left ear thickness. […]
Mean and standard deviation (SD) were calculated from individual ear edema values. […]

[1] = tested on: allergic contact dermatitis response in mice; experiment: Allergic contact dermatitis (TDI) model in mice, mouse ear swelling test; assay type: in vivo
Procedure: The anti-inflammatory and anti-allergic effects of compound 1a were assessed in a mouse model of allergic contact dermatitis, a response driven primarily by T helper type 2 (Th2) cells. […] In this model, an allergic dermatitis response is obtained by sensitizing mice to TDI and subsequently challenging them with antigen by topical administration onto the ears. A quantitative assessment of anti-inflammatory and anti-allergic effects of topically or orally administered test compounds is possible by measuring the resulting ear swelling.
Female BALB/c-mice were obtained from Charles River (Sulzfeld, Germany) at age 8 weeks. All animals were housed in groups of eight per cage at 22° C. with a 12 h light/dark-cycle. Water and a standard diet (Altromin, Lage/Lippe, Germany) were available ad libitum. All animals were acclimatized for one week before experimental procedures were commenced.
Experimental procedures for BALB/c mice housing, TDI sensitization and challenge, and measurement of ear thickness were performed as previously described (Baumer et al., J Pharm Pharmacol. 55:1107-1114 (2003)) with the following modifications. For active sensitization, 100 μL of 5% (w/v) TDI was administered to the shaved and stripped abdominal epidermis on day one, and for the next three consecutive days, 50 μL of 5% (w/v) TDI was applied. The allergic reaction was boosted 21 days later by application of 50 μL of 0.5% (w/v) TDI. For the examination of test compound effects, the left ears were used for the TDI challenge (20 μL of 0.5% in acetone) and ear thickness measured 3 h before and 24 h after challenge.
Administration time: to determine optimal time for administration treatment groups were treated orally by gavage with 100 mg/kg of compound 1a (suspended in 0.5% tylose, 10 mL/kg) 1, 4 or 16 h before topical TDI challenge. One group was treated with 100 mg/kg miltefosine orally, 16 h before challenge (based on available data for optimal administration time for miltefosine) and vehicle treated mice received tylose (10 mL/kg) orally, 4 h before challenge.
Comparison with dexamethasone: one group of mice was treated orally with compound 1a at 100 mg/kg suspended in 0.5% tylose, 4 h before topical TDI challenge. Vehicle treated mice received 0.5% tylose orally 4 h before challenge. As a positive control, dexamethasone was administered in saline solution at 1 mg/kg or 3 mg/kg, 2 h and 30 min before challenge and 1 h after challenge. The dose and dosing scheme for dexamethasone was based on previous experience showing a maximal effect in this model.
[…] The solution was applied, 2 h before topical TDI challenge by administration of 10 μl onto each of the inner and outer surfaces of the left ears. A vehicle group (n=5) was treated with propyleneglycol. As a positive control, diflorasone diacetate was administered at 0.01% (low dose) and 0.05% (high dose) in 20 μl acetone, 2 h before challenge. A basal control group was left untreated.
Mean and standard error of the mean (SEM) were calculated from individual ear edema values. Statistical evaluation was a one-way analysis of variance (ANOVA) (if the test for normal distribution was passed) or the Kruskal-Wallis one-way ANOVA on Ranks (if the normal distribution test failed). Both were followed by a post-hoc test (Dunnett's method or Dunn's test, respectively). A p<0.05 was considered to be significant.

CCCCCCCCCCCCCC[N+](C)(C)CC(=O)N(C)C[C@H](O)[C@@H](O)[C@H](O)[C@H](O)CO [Compound 1a, N-(2-(Dimethyl(tetradecyl)ammonio)acetyl)-N-methyl-D-glucamine chloride]
Inhibition of mouse ear swelling (DTH response in mice; 25 mg/kg orally twice daily): 43%
Inhibition of mouse ear swelling (DTH response in mice; 100 mg/kg orally twice daily): 50%
inhibition relative to that of the high dose of dexamethasone (DTH response in mice; 25 or 100 mg/kg orally twice daily vs dexamethasone 1 mg/kg): up to 94%
toxicity ([1]; 100 mg/kg oral): no toxicity
inhibition relative to the highest dose of dexamethasone ([1]; 100 mg/kg oral vs dexamethasone 3 mg/kg): 37%
Inhibition of mouse ear swelling ([1]; administration time study, 100 mg/kg oral, 1 h before TDI challenge): 43.5* %
Inhibition of mouse ear swelling ([1]; administration time study, 100 mg/kg oral, 4 h before TDI challenge): 63% and 62.9*** %
Inhibition of mouse ear swelling ([1]; administration time study, 100 mg/kg oral, 16 h before TDI challenge): 43.5^§ %
Inhibition of mouse ear swelling ([1]; comparison with dexamethasone, 100 mg/kg oral, 4 h before challenge): 32%
Inhibition of mouse ear swelling ([1]; topical, 2% solution in propyleneglycol, 2 h before challenge): 68% and 67.7*** %
Inhibition of mouse ear swelling ([1]; topical, 6% solution in propyleneglycol, 2 h before challenge): 83% and 82.2*** %
